This is an account of results in patent US5314896A, “1,3-substituted cycloalkenes and cycloalkanes as central nervous system agents” (priority 1992, dated 1994).

Like-named read-outs stand apart in the source and are kept apart here.

The test system of experiment [1] is Locomotor Activity in Mice. Kind of experiment: Inhibition of locomotor activity in mice. It counts as in vivo. The following applies: for ED50: Mus musculus. The procedure:
(§1) The compounds of Formula I are valuable dopaminergic agents. […] Thus, the compounds of Formula I were tested for their ability to inhibit locomotor activity in mice and rats, a measure of antipsychotic activity, according to the assay described by J. R. McLean, et al, Pharmacology, Biochemistry and Behavior, Vol. 8, pages 97-99 (1978); for their ability to bind to dopamine receptors as measured by their inhibition of [^3 H]spiroperidol binding in a receptor assay described by D. Grigoriadis and P. Seeman, Journal of Neurochemistry, Vol. 44, pages 1925-1935 (1985); and for their ability to effect dopamine synthesis in rats according to the protocol described by J. R. Walters and R. H. Roth, Naunyn-Schmiedebero's Archives of Pharmacology, Vol. 296, pages 5-14 (1976). The above test methods are incorporated herein by reference. The data in the table show the dopaminergic activity of representative compounds of Formula I.

The target in the next experiment is dopamine receptors. The experiment in a line: Inhibition of [^3 H] spiroperidol binding. As for the experimental part:
as §1

The mark [2] stands for this setting: ip, read-out: Inhibition of Locomotor Activity in Mice ED50, mice, IP (Table 2).
Setting [3] is: ip, read-out: Inhibition of Locomotor Activity in Mice ED50, mice, IP (Table 1).

What is called ED50 is the dose that gives a 50% effect, or the effect in half of the subjects. For orientation: IC50 means the concentration that gives 50% inhibition. Higher therefore signals weaker potency in that assay. With `C1=C(c2ccccc2)CCC(CN2CC=C(c3ccccc3)CC2)C1` (racemic) [B, (±)-1,2,3,6-tetrahydro-4-phenyl-1-[(4-phenyl-3-cyclohexen-1-yl)methyl]pyridine, reference compound], in experiment [1] (setting [2]), the ED50 amounted to 13.2 mg/kg. In addition, the IC50 on dopamine receptors (Table 2) stood at 1000 nM.

Regarding `CN(C)c1ccc(C2=C[C@H](CN3CC=C(c4ccccc4)CC3)CCC2)cc1` [Example 16a, (R)-4-[3-[(3,6-dihydro-4-phenyl-1(2H)-pyridinyl)methyl]-1-cyclohexen-1-yl]-N,N-dimethylbenzeneamine], the ED50 in experiment [1] (setting [3]) was found to be 0.7 mg/kg. The IC50 at dopamine receptors (Table 1) stood at 660 nM.

On to `C1=C(c2ccccc2)CCN(C[C@@H]2CCC=C(c3ccc4c(c3)OCO4)C2)C1.Cl` [Example 18, (R)-1-[[3-(1,3-benzodioxol-5-yl)-3-cyclohexen-1-yl]methyl]-1,2,3,6-tetrahydro-4-phenylpyridine monohydrochloride], for which, in experiment [1] (setting [3]), the median effective dose (ED50) was 0.8 mg/kg. The compound also showed a 50% inhibitory concentration (IC50) on dopamine receptors (Table 1) of 432 nM.

For the compound `C1=C(c2ccccc2)CC(CN2CCN(c3ccccc3)CC2)CC1.Cl.Cl` (racemic) [Example 22, (±)-1-phenyl-4-[(3-phenyl-3-cyclohexen-1-yl)methyl]-piperazine dihydrochloride], the ED50 in experiment [1] (mice, IP (Table 1), read-out: Inhibition of Locomotor Activity in Mice ED50) was 2.1 mg/kg. Further, at dopamine receptors (Table 1), the 50% inhibitory concentration (IC50) is 424 nM.

Turning to `C1=C(c2ccccc2)CCN(CC2C=C(c3cccs3)CCC2)C1` (racemic) [Example 2a, (±)-1,2,3,6-Tetrahydro-4-phenyl-1-[[3-(2-thienyl)-2-cyclohexen-1-yl]methyl]pyridine], the 50% effective dose (ED50) in experiment [1] (setting [3]) is 2.3 mg/kg. At dopamine receptors (Table 1), this compound registered an IC50 of 400 nM.

Take `C1=C(c2ccccc2)CCC(CN2CCN(c3ccccn3)CC2)C1` (racemic) [Compound G, (±)-1-[(4-phenyl-3-cyclohexen-1-yl)methyl]-4-(2-pyridinyl)piperazine, reference compound]: the ED50 in experiment [1] (mice, IP (Table 2), read-out: Inhibition of Locomotor Activity in Mice ED50) came out at 25.9 mg/kg. The compound further yielded a concentration for half-maximal inhibition (IC50) on dopamine receptors (Table 2) of 11200 nM.

With “(R)-1,2,3,6-tetrahydro-1-[[3-(2-methylphenyl)-2-cyclohexen-1-yl]methyl]-4-phenylpyridine monohydrochloride compound with (R)-1,2,3,6-tetrahydro-1-[[3-(2-methylphenyl)-3-cyclohexen-1-yl]methyl]-4-phenylpyridine [Example 13]”, in experiment [1] (mice, IP (Table 1)), the “Inhibition of Locomotor Activity in Mice ED50” value was 2.3 mg/kg.

`C1=C(c2ccccc2)CCN(C[C@@H]2CCC=C(c3cncnc3)C2)C1.Cl` [Example 14, (R)-5-[5-[(3,6-dihydro-4-phenyl-1(2H)-pyridinyl)methyl]-1-cyclohexen-1-yl]pyrimidine monohydrochloride]: the ED50 in experiment [1] (setting [3]) amounted to 0.4 mg/kg. Besides, the IC50 on dopamine receptors (Table 1) came out at 438 nM.

Take `C1=C(c2ccccc2)CCC(CCN2CC=C(c3ccccc3)CC2)C1` (racemic) [Compound C, (±)-1,2,3,6-tetrahydro-4-phenyl-1-[2-(4-phenyl-3-cyclohexen-1-yl)ethyl]pyridine, reference compound]: the ED50 in experiment [1] (setting [2]) worked out at 5.8 mg/kg. Besides, the half-maximal inhibitory concentration (IC50) on dopamine receptors (Table 2) is 8020 nM.

Turning to `C1=C(c2ccccc2)CCN(C[C@@H]2CCC[C@@H](c3ccccc3)C2)C1.Cl` [Example 20a, (1R-trans) 1,2,3,6-tetrahydro-4-phenyl-1-[(3-phenylcyclohexyl)methyl]pyridine monohydrochloride], the ED50 in experiment [1] (setting [3]) amounted to 0.5 mg/kg. The compound further yielded an IC50 on dopamine receptors (Table 1) of 874 nM.

Take `C1=C(c2cncnc2)CCC[C@H]1CN1CC=C(c2ccccc2)CC1.Cl.Cl` [Example 14a, (R)-5-[3-[(3,6-dihydro-4-phenyl-1(2H)-pyridinyl)methyl]-1-cyclohexen-1-yl]pyrimidine dihydrochloride]: the ED50 in experiment [1] (setting [3]) worked out at 0.07 mg/kg.

`C1=C(c2ccccc2)CCN(CCC2CCC=C(c3ccccc3)C2)C1` (racemic) [Compound E, (±)-1,2,3,6-tetrahydro-4-phenyl-1-[2-(3-phenyl-3-cyclohexen-1-yl)ethyl]pyridine, reference compound]: the 50% effective dose (ED50) in experiment [1] (setting [2]) was found to be 10.9 mg/kg.
